Data taken from PMC8100298, “Histone deacetylase inhibitor resminostat in combination with sorafenib counteracts platelet-mediated pro-tumoral effects in hepatocellular carcinoma” (Scientific Reports, 2021).
Read-outs that look alike come from different tables or passages of the source.

Key:
Assay in all cases: Efficacy screening assay
Type in all cases: cell-based
PBMC = conditions: Non-cancer, healthy donors, 72 h
Method: C. Western blots for acetylated α-Tubulin, total α-Tubulin, p21 and GAPDH (loading control).
Cells were treated with vehicle control (0.1 % DMSO), 1 µM or 3 µM resminostat for 24 hours. Grouped blots were composed from cropped parts of individual blots for each antibody. Original blots with exposures and indicated cropped areas can be found in the supplementary information.
D. Cell line screen determining the EC50s of resminostat in 74 cell lines representing 14 different ca ncer indications. In addition, peripheral blood mononuclear cells (PBMCs) from healthy donors were tested. Each dot represents an EC50. […]
labelled fluorogenic peptide substrates: fluorogenic peptide from p53 residues 379-382 (RHKK(Ac)AMC) for HDAC1, 2, 3, 6, 10, 11; fluorogenic HDAC Class IIa Substrate (Trifluoro acetyl Lysine, Ac-LGK(TFA)-AMC) for HDAC 4, 5, 7, 9; and fluorogenic peptide from p53 residues 379-382 (RHK(Ac)K(Ac)AMC) for HDAC8. […] In a second step, the deacetylated products were digested by the addition of developer for 1 h at 30°C to produce the fluorescent signal proportional to the amount of deacetylated substrates and the fluorescence was measured using an Envision plate reader at 355 nm (excitation) and 460 nm (emission). A kinetic measurement was performed for ~1 h with 5 min intervals and d ata from the final time point were analysed. […]

HCT116 = conditions: HCT116, colon
Method: (§1) The experiment was performed by Oncolead GmbH & Co. KG (Karlsfeld , Germany), based on a standardized screening procedure . Cell lines were purchased directly from the ATCC, NCI and DSMZ cell line c ollections. Cells used for the study had undergone less than 20 passages. To ensure the absence of potential contamination and wrong assignment, all cell lines were tested using a whole genome assay (Agilent, USA). All cell lines were grown as recommended by the suppliers and with addition of 100 U/mL penicillin G and 100 µg/mL; streptomycin. Cell growth and treatments were performed in Nunclon D 96 -well plates (NUNC, Germany). The optimal seeding density for each cell line was determined to ensure exponential growth for the duration of the experiment. All cells growing without anti-cancer agents were sub-conﬂuent by the end of the treatment, as determined by visual inspection.
(§2) After an initial 24 h pre-growth period, the compounds were added. The vehicle concentration […]
(§3) was 0.1% DMSO. After incubation at 37°C for 72 h, the culture medium was aspirated, and the cells were precipitated by the addition of 10% trichloroacetic acid (Sigma-Aldrich, Missouri, US). After overnight incubation at 4°C, the plates were washed three times with deionized water. The precipitates were then stained with SRB (0.4% wt/v sulforhodamine B solution in 1% acetic acid, Sigma-Aldrich, Missouri, US). Afterwards, the plates were washed six times with 1% acetic acid to remove unbound stain. After drying the plates at room temperature, the bound SRB was solubilized with 10 mM Tris base and the optical density was measured at 520 nm using a Victor2 plate reader (Perkin Elmer, Germany). Blank OD values were subtracted from mean OD values for each concentration. The nonlinear curve ﬁtting and EC50 calculations were per formed using XLﬁt and algorithm “205” (ID Business […]
(§4) For comparison of EC50 values in Figure 1F, one-way ANOVA with multiple comparison testing (Tukey) was performed. Multiplicity adjusted p -values for the EC50 with sorafenib versus resminostat for each cell line and comparison between cell lines for sorafenib are presented (95% confidence interval for significance testing). For comparison of EC50 data in Figure 2B, one-way ANOVA with multiple comparison testing (Tukey) was performed. Multiplicity adjusted p-values with 95% confidence interval was applied. For the invasion assays in Figure 4, one-way ANOVA with multiple comparison testing (Tukey) was performed. Multiplicity adjusted p-values with 95% confidence interval was applied. The adjusted p-values comparing vehicle control without vs. with platelets and compound

SKNSH = conditions: 72 h, brain
Method: as §1, §2, §3, §4

OVCAR3 = conditions: OVCAR3, ovary
Method: as §1, §2, §3, §4

MIAPACA2 = conditions: Homo sapiens, MIA PaCa-2, MIAPACA2, pancreas, 72 h
Method: as §1, §2, §3, §4

HT29 = conditions: HT29, colon
Method: as §1, §2, §3, §4

HS578T = conditions: 72 h, breast
Method: as §1, §2, §3, §4

UO31 = conditions: UO31, kidney
Method: as §1, §2, §3, §4

OVCAR4 = conditions: OVCAR4, ovary
Method: as §1, §2, §3, §4

EJ28 = conditions: EJ28, bladder
Method: as §1, §2, §3, §4

[1] = log of EC50, negative, read-out: log(EC50) (converted)

For `CN(C)Cc1ccc(S(=O)(=O)n2ccc(/C=C/C(=O)NO)c2)cc1` [resminostat, Resminostat], the EC50 (PBMC; [1]) was 8.71 µM, the EC50 (PBMC; read-out: EC50) was 8.68 µM and the EC50 (HCT116; 72 h, read-out: EC50) was 0.79 µM. For the same compound, the EC50 (HCT116; Homo sapiens, HCT-116, 72 h, log of EC50, negative, read-out: log(EC50) (converted)) was 0.794 µM, the EC50 (HCT116; Homo sapiens, HCT-116, 72 h, read-out: EC50) was 0.792 µM and the EC50 (SKNSH; Homo sapiens, SK-N-SH, log of EC50, negative, read-out: log(EC50) (converted)) was 3.63 µM. For the same compound, the EC50 (SKNSH; Homo sapiens, SK-N-SH, read-out: EC50) was 3.67 µM, the EC50 (SKNSH; read-out: EC50) was 3.67 µM and the EC50 (OVCAR3; Homo sapiens, OVCAR-3, 72 h, log of EC50, negative, read-out: log(EC50) (converted)) was 3.55 µM. The EC50 (OVCAR3; Homo sapiens, OVCAR-3, 72 h, read-out: EC50) was 3.55 µM, the EC50 (OVCAR3; 72 h, read-out: EC50) was 3.55 µM and the EC50 (MIAPACA2; [1]) was 2.69 µM. It also gave an EC50 (MIAPACA2; read-out: EC50) of 2.71 µM, an EC50 (HT29; 72 h, read-out: EC50) of 3 µM and an EC50 (HT29; Homo sapiens, HT-29, 72 h, log of EC50, negative, read-out: log(EC50) (converted)) of 3.02 µM. It also gave an EC50 (HT29; Homo sapiens, HT-29, 72 h, read-out: EC50) of 3 µM, an EC50 (HS578T; Homo sapiens, Hs-578T, log of EC50, negative, read-out: log(EC50) (converted)) of 3.98 µM and an EC50 (HS578T; Homo sapiens, Hs-578T, read-out: EC50) of 4.03 µM. For the same compound, the EC50 (HS578T; read-out: EC50) was 4.03 µM, the EC50 (UO31; Homo sapiens, UO-31, 72 h, log of EC50, negative, read-out: log(EC50) (converted)) was 0.0724 µM and the EC50 (UO31; Homo sapiens, UO-31, 72 h, read-out: EC50) was 0.0722 µM. It also gave an EC50 (UO31; 72 h, read-out: EC50) of 0.07 µM, an EC50 (OVCAR4; Homo sapiens, OVCAR-4, 72 h, log of EC50, negative, read-out: log(EC50) (converted)) of 4.07 µM and an EC50 (OVCAR4; Homo sapiens, OVCAR-4, 72 h, read-out: EC50) of 4.04 µM. It also gave an EC50 (OVCAR4; 72 h, read-out: EC50) of 4.04 µM, an EC50 (EJ28; 72 h, read-out: EC50) of 4.59 µM and an EC50 (EJ28; Homo sapiens, EJ-28, 72 h, log of EC50, negative, read-out: log(EC50) (converted)) of 4.57 µM. For the same compound, the EC50 (EJ28; Homo sapiens, EJ-28, 72 h, read-out: EC50) was 4.59 µM.
